Laboratory results as given in US8431563B2 (priority 2010, dated 2013).
pEC50, pIC50: −log10 of the molar value. Where a name gives a salt, the structure may show the parent alone.

Biological target: T1, GKRP (Glucokinase Regulatory Protein) with human His-hepatic GK (Homo sapiens, UniProt Q14397)
T1 sequence (Q14397 1-625): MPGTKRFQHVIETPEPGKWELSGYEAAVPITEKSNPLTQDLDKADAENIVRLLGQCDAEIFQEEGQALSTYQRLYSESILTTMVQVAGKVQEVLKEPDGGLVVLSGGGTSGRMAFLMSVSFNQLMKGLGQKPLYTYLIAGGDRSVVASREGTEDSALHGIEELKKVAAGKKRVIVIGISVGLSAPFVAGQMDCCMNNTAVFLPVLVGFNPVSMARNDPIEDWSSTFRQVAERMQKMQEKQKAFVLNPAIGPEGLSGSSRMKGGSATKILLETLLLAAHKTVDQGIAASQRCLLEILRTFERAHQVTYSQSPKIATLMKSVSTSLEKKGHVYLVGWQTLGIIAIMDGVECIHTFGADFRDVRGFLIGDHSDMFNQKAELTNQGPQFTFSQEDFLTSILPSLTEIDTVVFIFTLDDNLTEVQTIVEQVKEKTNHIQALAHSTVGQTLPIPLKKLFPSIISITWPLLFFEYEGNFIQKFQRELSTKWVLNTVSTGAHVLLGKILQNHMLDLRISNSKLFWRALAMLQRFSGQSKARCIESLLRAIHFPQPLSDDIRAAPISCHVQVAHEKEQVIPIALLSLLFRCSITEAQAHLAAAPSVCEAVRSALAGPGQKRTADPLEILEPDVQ
Assay: biochemical
Details: 13C-glucose-6-phosphate formation; 280 nM GKRP (10×), 30 nM GK (5×); read-out: GK-GKRP EC50 (LC MS/MS-2)
Method: GKRP LC MS/MS-2 Biochemical Assay
This assay is used to directly measure the formation of ^13C-glucose-6-phosphate from ^13C-glucose by LC MS/MS. Begin by preparing the following solutions: Compound Buffer (CB): 50 mM Tris, pH 7.5/4 mM MgCl2/6% DMSO/fresh 10 mM DTT from 1M frozen stock. Enzyme Buffer (EB): 50 mM Tris, pH 7.5/4 mM MgCl2/6% DMSO/fresh 0.1% BSA/fresh 0.01% Brij-35 (10% BSA and 1% Brij-35 stock). GK (Glucokinase) Working Stock (5×): Dilute human His-hepatic GK to 30 nM in EB buffer. […] After 30 minutes add 10 μl of GK Working Stock (5×). Re-seal the plate and incubate for another 30 minutes at room temperature while mixing. After the second 30 minutes, stop the reaction by the addition of 50 μl of 100% acetonitrile, seal, and mix for 5-10 minutes. Run 10 μl of this sample through the LC MS/MS (API 3200, Applied Biosystems, Carlsbad, Calif.).

Compound	pEC50
2-(4-((2S)-4-((5-amino-2-thiophenyl)sulfonyl)-2-(((3S)-3-methyl-4-morpholinyl)methyl)-1-piperazinyl)phenyl)-1,1,1,3,3,3-hexafluoro-2-propanol [Example 225]	7.72
O=S(=O)(c1ccccc1)N1CCN(c2ncc(C(O)(C(F)(F)F)C(F)(F)F)cn2)[C@@H](CN2C3COCC2C(O)C3)C1 (mixture of isomers) [Example 80, 8-(((2S)-4-(phenylsulfonyl)-1-(5-(2,2,2-trifluoro-1-hydroxy-1-(trifluoromethyl)ethyl)-2-pyrimidinyl)-2-piperazinyl)methyl)-3-oxa-8-azabicyclo[3.2.1]octan-6-ol]	6.87
C[C@H]1COCCN1C[C@H]1CN(S(=O)(=O)c2cccs2)CCN1c1ccc(C(O)(CO)C(F)(F)F)cc1 (mixture of isomers) [Example 83, 3,3,3-trifluoro-2-(4-((2S)-2-(((3S)-3-methyl-4-morpholinyl)methyl)-4-(2-thiophenylsulfonyl)-1-piperazinyl)phenyl)-1,2-propanediol]	7.72
CC(C)C1C(=O)NCCN1C[C@H]1CN(S(=O)(=O)c2ccc(N)s2)CCN1c1ncc(C(O)(C(F)(F)F)C(F)(F)F)cn1 (single isomer, unassigned) [Example 184 Peak #2]	7.60

Biological target: T2, interaction between glucokinase (GK) and glucokinase regulatory protein (GKRP) (Homo sapiens, UniProt Q14397)
T2 sequence (Q14397 1-625): T1 sequence (Q14397 1-625)
Assay: biochemical
Format: binding
Details: GK-GKRP IC50 (Binding), avi-tagged GKRP, GK-fluorescein, AlphaScreen beads
Method: GK-GKRP Binding Assay Protocol
This assay is used to directly measure the interaction between glucokinase (GK) and glucokinase regulatory protein (GKRP). Begin by preparing the following solutions. Assay Buffer: 20 mM Tris, pH 7.5/0.05% BSA/1 mM DTT/1 μM sorbitol-6-phosphate. […] Combine the following reagents in a white 96-well half area plate. Pipette 14 μl of the diluted avi-tagged GKRP into each well. Add 1 μl of compound to be tested and incubate at room temperature for 20 minutes. After 20 minutes, add 5 μl of assay buffer containing 6 nM GK-fluorescein. […] Incubate in a dark room for 2 hours at room temperature. After 2 hours read the plate using an Envision plate reader (Perkin Elmer, Waltham Mass.).

Compound	pIC50
CC(O)(c1ccc(N2CCN(S(=O)(=O)c3cccs3)C[C@@H]2CNC2CC2)cc1)C(F)(F)F (mixture of isomers) [Example 199, 2-(4-((2S)-2-((cyclopropylamino)methyl)-4-(2-thiophenylsulfonyl)-1-piperazinyl)phenyl)-1,1,1-trifluoro-2-propanol]	6.15
NCC#Cc1cc(C(O)(C(F)(F)F)C(F)(F)F)ccc1N1CCN(S(=O)(=O)c2cccs2)CC1 [Example 159, 2-(3-(3-amino-1-propyn-1-yl)-4-(4-(2-thiophenylsulfonyl)-1-piperazinyl)phenyl)-1,1,1,3,3,3-hexafluoro-2-propanol trifluoroacetate]	5.72

Same assay, conditions: avi-tagged GKRP, GK-fluorescein, AlphaScreen beads; read-out: GK-GKRP IC50 (Binding)

Compound	pIC50
2-(4-((2S)-4-((5-amino-2-thiophenyl)sulfonyl)-2-(((3S)-3-methyl-4-morpholinyl)methyl)-1-piperazinyl)phenyl)-1,1,1,3,3,3-hexafluoro-2-propanol [Example 225]	8.15
O=S(=O)(c1ccccc1)N1CCN(c2ncc(C(O)(C(F)(F)F)C(F)(F)F)cn2)[C@@H](CN2C3COCC2C(O)C3)C1 (mixture of isomers) [Example 80, 8-(((2S)-4-(phenylsulfonyl)-1-(5-(2,2,2-trifluoro-1-hydroxy-1-(trifluoromethyl)ethyl)-2-pyrimidinyl)-2-piperazinyl)methyl)-3-oxa-8-azabicyclo[3.2.1]octan-6-ol]	6.90
CN(Cc1cn(C)cn1)C[C@H]1CN(S(=O)(=O)c2cccs2)CCN1c1ccc(C(C)(O)C(F)(F)F)cc1 (mixture of isomers) [Example 121, 1,1,1-trifluoro-2-(4-((2S)-2-((methyl((1-methyl-1H-imidazol-4-yl)methyl)amino)methyl)-4-(2-thiophenylsulfonyl)-1-piperazinyl)phenyl)-2-propanol]	6.28
CC(O)(c1ccc(N2CCN(S(=O)(=O)c3cccs3)C[C@@H]2CN2CCNC(=O)C2)cc1)C(F)(F)F (mixture of isomers) [Example 179, 4-(((2S)-4-(2-thiophensulfonyl)-1-(4-(2,2,2-trifluoro-1-hydroxy-1-methylethyl)phenyl)-2-piperazinyl)methyl)-2-piperazinone]	6.27
CC(O)(c1ccc(N2CCN(S(=O)(=O)c3cccs3)C[C@@H]2CN(C2CCC2)S(=O)(=O)c2cccnc2)cc1)C(F)(F)F (mixture of isomers) [Example 213, N-cyclobutyl-N-(((2R)-4-(2-thiophenylsulfonyl)-1-(4-(2,2,2-trifluoro-1-hydroxy-1-methylethyl)phenyl)-2-piperazinyl)methyl)-3-pyridinesulfonamide]	6.03
CC(c1ccccc1)N(C[C@H]1CN(S(=O)(=O)c2cccs2)CCN1c1ccc(C(C)(O)C(F)(F)F)cc1)S(C)(=O)=O (mixture of isomers) [Example 222, N-(1-phenylethyl)-N-(((2R)-4-(2-thiophenylsulfonyl)-1-(4-(2,2,2-trifluoro-1-hydroxy-1-methylethyl)phenyl)-2-piperazinyl)methyl)methanesulfonamide]	6.17
CCC(O)C#Cc1cc(C(O)(C(F)(F)F)C(F)(F)F)ccc1N1CCN(S(=O)(=O)c2cccs2)CC1 (racemic) [Example 154, 1-(2-(4-(2-thiophenylsulfonyl)-1-piperazinyl)-5-(2,2,2-trifluoro-1-hydroxy-1-(trifluoromethyl)ethyl)phenyl)-1-pentyn-3-ol]	5.97
CC(C)C(O)C#Cc1cc(C(O)(C(F)(F)F)C(F)(F)F)ccc1N1CCN(S(=O)(=O)c2cccs2)CC1 (racemic) [Example 156, 4-methyl-1-(2-(4-(2-thiophenylsulfonyl)-1-piperazinyl)-5-(2,2,2-trifluoro-1-hydroxy-1-(trifluoromethyl)ethyl)phenyl)-1-pentyn-3-ol]	5.54
COC(C#Cc1cc(C(O)(C(F)(F)F)C(F)(F)F)ccc1N1CCN(S(=O)(=O)c2cccs2)CC1)C(C)C (racemic) [Example 157, 1,1,1,3,3,3-hexafluoro-2-(3-(3-methoxy-4-methyl-1-pentyn-1-yl)-4-(4-(2-thiophenylsulfonyl)-1-piperazinyl)phenyl)-2-propanol]	6.18
CCC(O)C#Cc1cc(C(O)(C(F)(F)F)C(F)(F)F)ccc1N1CCC(S(=O)(=O)c2ccccc2)CC1 (racemic) [Example 162, 1-(2-(4-(phenylsulfonyl)-1-piperidinyl)-5-(2,2,2-trifluoro-1-hydroxy-1-(trifluoromethyl)ethyl)phenyl)-1-pentyn-3-ol]	5.29
COc1cccc(CC2CN(S(=O)(=O)c3cccs3)CCN2c2ccc(C(O)(C(F)(F)F)C(F)(F)F)cc2)c1 (racemic) [Example 173, 1,1,1,3,3,3-hexafluoro-2-(4-(2-(3-methoxybenzyl)-4-(thiophen-2-ylsulfonyl)piperazin-1-yl)phenyl)-2-propanol]	6.27
COc1ccc(CC2CN(S(=O)(=O)c3cccs3)CCN2c2ccc(C(O)(C(F)(F)F)C(F)(F)F)cc2)cc1 (racemic) [Example 175, 1,1,1,3,3,3-hexafluoro-2-(4-(2-(4-methoxybenzyl)-4-(thiophen-2-ylsulfonyl)piperazin-1-yl)phenyl)-2-propanol]	5.54
O=S(=O)(c1cccs1)N1CCN(c2ccc(C(O)(C(F)(F)F)C(F)(F)F)cc2)C(Cc2ccc(O)cc2)C1 (racemic) [Example 177, 4-((1-(4-(1,1,1,3,3,3-hexafluoro-2-hydroxypropan-2-yl)phenyl)-4-(thiophen-2-ylsulfonyl)piperazin-2-yl)methyl)phenol]	6.10
CC(O)(c1ccc(N2CCN(S(=O)(=O)c3cccs3)C[C@@H]2C[S+]([O-])c2cccc(F)c2)cc1)C(F)(F)F (single isomer, unassigned) [Example 189 Peak#2]	6.14
CC(O)(c1ccc(N2CCN(S(=O)(=O)c3cccs3)C[C@@H]2C[S+]([O-])c2cccc(F)c2)cc1)C(F)(F)F (single isomer, unassigned) [Example 189 Peak#3]	6.27
C[C@H]1COCCN1C[C@H]1CN(S(=O)(=O)c2cccs2)CCN1c1ccc(C(O)(C(F)(F)F)C(F)(F)F)cc1 [Example 132, 1,1,1,3,3,3-hexafluoro-2-(4-((2S)-2-(((3S)-3-methyl-4-morpholinyl)methyl)-4-(2-thiophenylsulfonyl)-1-piperazinyl)phenyl)-2-propanol]	8.22
C[C@H]1CN(S(=O)(=O)c2cnc(N)s2)CCN1c1ncc(C(O)(C(F)(F)F)C(F)(F)F)cn1 [Example 147, 2-(2-((2S)-4-((2-amino-1,3-thiazol-5-yl)sulfonyl)-2-methyl-1-piperazinyl)-5-pyrimidinyl)-1,1,1,3,3,3-hexafluoro-2-propanol]	6.00
CC(C)(C)OC(=O)NCC#Cc1cc(C(O)(C(F)(F)F)C(F)(F)F)ccc1N1CCN(S(=O)(=O)c2cccs2)CC1 [Example 158, tert-butyl (3-(2-(4-(2-thiophenylsulfonyl)-1-piperazinyl)-5-(2,2,2-trifluoro-1-hydroxy-1-(trifluoromethyl)ethyl)phenyl)-2-propyn-1-yl)carbamate]	6.16
